# Patent US20230233566A1, “INHIBITION OF BMI1 ELIMINATES CANCER STEM CELLS AND ACTIVATES ANTITUMOR IMMUNITY” (The Regents of the University of California, priority 2020, published 2023)
# How the values were obtained:
# [1] = phase 1 study; cited from earlier work
# [2] = system: HNSCC lymph node metastasis; assay: Cervical lymph node metastasis by anti-PCK immunostaining; type: in vivo, mouse; conditions: given concurrently with PTC209 plus anti-PD1
# Description: Tumor growth and cervical lymph node metastasis were examined as described before (Chen et al., 2017). Briefly, mice were sacrificed, and tongues and cervical lymph nodes were harvested immediately and the lesion surface areas were measured. For histological analysis and immunostaining, longitudinally cut tongues (dorsal/ventral) and intact lymph nodes were fixed overnight in 10% buffered formalin and paraffin-embedded. Tissue blocks were cut into 10-15 sections in 4 μm thickness and stained with hematoxylin and eosin (H&E). The SCC number was counted and areas were measured as described before (Chen et al., 2017). […] To assess lymph node metastasis, the sections of cervical lymph nodes were immunostained with anti-PCK antibodies which specifically detected epithelial tumor cells in lymph nodes (Santa Cruz, Cat #sc-8018). The percentage of lymph nodes with metastasis and their metastatic areas were measured.
# CD8+ T cells = assay: Immunostaining of CD8+ T cells in HNSCC; type: in vivo, mouse
# Description: (§1) The immunocomplexes were detected and visualized using related secondary antibodies conjugated with Cy2 or Cy3 (Jackson ImmunoResearch Laboratories). […] At least three sections from each HNSCC lesions were immunostained and analyzed. Tumor cells (>150) and CD8+, Ac-casp3+ and Tomato^+ cells of these tumor cell areas were counted manually in each section. The percentage of CD8+, Ac-casp3^+ and Tomato^+ cells were calculated by dividing those cells with tumor cells and averaged from the sections.
# HNSCC tumor cells = assay: Anti-active caspase-3 (Ac-casp3) immunostaining of apoptosis in HNSCC; type: in vivo, mouse; conditions: given concurrently with PTC209 plus anti-PD1
# Description: as §1
# BMI1+ CSCs [3] = assay: BMI1 immunostaining of CSCs in HNSCC; type: in vivo, mouse; conditions: FIG. 16C-16D
# HNSCC = assay: 4NQO mouse model of HNSCC: lesion area, histology, invasion grade
# Description: Bmi1^CreER (JAX:010531) and R26^tdTomato (JAX:007908) mouse strains were cross-mated to generate Bmi1^CreER;R26^tdTomato. K14^CreER (JAX:005107) and Bmi1^flox/flox (JAX: 028974) mouse strains were cross-mated to generate K14^CreER; Bmi1^flox/flox. […] For induction of HNSCC, six-week-old mice were treated with drinking water containing 50 ug/ml 4NQO (Santa Cruz, Cat #256815) for 16 weeks and then given normal drinking water for tumor formation and lymph node metastasis. For lineage tracing and Bmi1 knock out studies, mice were intraperitoneally injected with tamoxifen (9 mg per 40 g body weight; Sigma-Aldrich, Cat #T5648) to activate Cre.
# Cisplatin (Sigma-Aldrich, Cat #479306) was dissolved in saline. PTC209 (MedChem Express, Cat #HY-15888) was dissolved in 14% DMSO, 36% polyethylene glycol 400 (Sigma-Aldrich, Cat #202304) and 50% polypropylene glycol (Sigma-Aldrich Cat #4347). […]
# Briefly, mice were sacrificed, and tongues and cervical lymph nodes were harvested immediately and the lesion surface areas were measured. […] The SCC number was counted and areas were measured as described before (Chen et al., 2017). The HNSCC invasiveness was scored based on the following criteria: showing signs of normal or epithelial dysplasia appearance (grade 1); distinct invasion, unclearness of basement membrane, drop and diffuse infiltration into the superficial portion of the muscle layer (grade 2); loss of the basement membrane, extensive invasion into deep muscle layer (grade 3). To assess lymph node metastasis, the sections of cervical lymph nodes were immunostained with anti-PCK antibodies which specifically detected epithelial tumor cells in lymph nodes (Santa Cruz, Cat #sc-8018). The percentage of lymph nodes with metastasis and their metastatic areas were measured.
# BMI-1 = BMI-1 (Homo sapiens, UniProt P35226); conditions: cell-free assay; cited from earlier work
# BMI1 [4] = assay: Western blot of BMI1 and H2AUb in SCC23 and SCC1 cells; type: cell-based, human
# Description: Human SCC23 and SCC1 cells were grown in DMEM containing 10% FBS and antibiotics (streptomycin and penicillin) at 37° C. in a 5% CO2 atmosphere. To generate lentiviruses, scramble control (shCtrl, Addgene, Cat #1864; see Sarbassov et al Science 2005 Feb. 18; 307(5712):1098-101) and BMI1 specific shRNA lentiviral plasmids (shBmi1, Sigma-Aldrich, Cat #TRCN0000020156, comprising […], SEQ ID NO:35) were transfected into HEK293T cells with two helper plasmids psPAX2 (Addgene, Cat #12260) and pMD2.G (Addgene, Cat #12259). Viral supernatant was harvested 72 h after transfection and passed through a 0.45 μm filter to remove cell debris and live cells. Collected lentiviruses were used directly to infect cells with the addition of polybrene (Sigma-Aldrich, Cat #H9268), or frozen at −80° C. for later use. […]
# (§2) Cells were lysed using the radioimmunoprecipitation assay (RIPA) buffer (Sigma-Aldrich, Cat #R0278) added with a cocktail of protease inhibitors (Thermo Fisher Scientific, Cat ##78430) and phosphatase inhibitors (Sigma-Aldrich, Cat #4906845001). […] The signals were detected using the Clarity Western ECL kit (Bio-Rad, Cat #1705060). […] After treatment, supernatants were collected, and the protein levels of CCL5, CXCL9, CXCL10 and CXCL11 were measured with ELISA (R&D Systems, Cat #DRN00B, DCX900, DIP100, DCX110) according to the manufacturer's instructions.
# pH2A.X = assay: DNA damage in SCC23 and SCC1 cells (pH2A.X, alkaline comet assay); type: cell-based, human
# Description: (§3) Cells were lysed using the radioimmunoprecipitation assay (RIPA) buffer (Sigma-Aldrich, Cat #R0278) added with a cocktail of protease inhibitors (Thermo Fisher Scientific, Cat ##78430) and phosphatase inhibitors (Sigma-Aldrich, Cat #4906845001). Protein extracts were resolved on a 10% or 15% SDS polyacrylamide gel and then transferred to a polyvinylidene difluoride membrane. Membranes were blocked with 5% milk for 1 h and incubated with primary antibodies overnight at 4° C. Primary antibodies used in this study were: anti-phospho-STING (Ser366) (1:1,000; Cell Signaling Technology, Cat #19781), anti-STING (1:1,000; Cell Signaling Technology, Cat #13647), anti-phospho-TBK1 (Ser172) (1:1,000; Cell Signaling Technology, Cat #5483), anti-TBK1 (1:1,000; Cell Signaling Technology, Cat #3504), anti-phospho-IRF3 (Ser396) (1:1,000; Cell Signaling Technology, Cat #29047), anti-IRF3 (1:1,000; Cell Signaling Technology, Cat #4302), anti-BMI1 (1:1,000; Cell Signaling Technology, Cat #6964), anti-Ubiquityl-Histone H2A (Lys119) (1:1000, Cell Signaling Technology, Cat #8240), anti-phospho Histone H2A.X (Ser139) (1:1000; Cell Signaling Technology, Cat #9718), and anti-GAPDH (1:1000; Cell Signaling Technology, Cat #5174), anti-Histone H3 (1:2,000; Cell Signaling Technology, Cat #4499). The signals were detected using the Clarity Western ECL kit (Bio-Rad, Cat #1705060). To measure the protein levels of CCL5, CXCL9, CXCL10 and CXCL11, cells were treated with PTC209 or shBMI1 knockdown for 48 hr. After treatment, supernatants were collected, and the protein levels of CCL5, CXCL9, CXCL10 and CXCL11 were measured with ELISA (R&D Systems, Cat #DRN00B, DCX900, DIP100, DCX110) according to the manufacturer's instructions.
# Single cell gel electrophoresis comet assays were performed using the SCGE assay Kit (Enzo Life Sciences, Cat #ADI-900-166). Following the treatment, cells were mixed with low melting point agarose at a volume ratio of 1:50, and 100 μl of aliquots were loaded onto pre-warmed slides. Slides were incubated in pre-chilled lysis solution for 1 h and then in pre-chilled alkaline solution for 1 h. Electrophoresis was run at 22 V in the TBE buffer for 30 min. Comets were stained with CYGREEN dye for 30 min and imaged. 50 individual cells at least per sample were evaluated in duplicates by the CASP Version 1.2.2 analysis tool.
# cytosolic dsDNA = assay: Cytosolic dsDNA staining (PicoGreen/MitoTracker); type: cell-based, human; conditions: SCC23 and SCC1 cells
# Description: Following the treatment, SCC23 and SCC1 cells were incubated with culture media containing PicoGreen (dsDNA stain, 200-fold dilution, Thermo Fisher Scientific, Cat #P11496) and MitoTracker ([…], 100 nM, Thermo Fisher Scientific, Cat #M7512). One hour after incubation, cells were fixed with 4% paraformaldehyde for 10 min. Cells were then washed twice with PBS and stained with DAPI (Sigma-Aldrich, Cat #D9542) and mounted with SlowFade Antifade Reagents (Thermo Fisher Scientific, Cat #536937). Staining was imaged and assessed using a Leica SP5X laser scanning confocal microscope.
# [5] = system: cGAS-STING-IRF3 signaling; assay: Western blot of phosphorylated STING, TBK1, IRF3; type: cell-based, human
# Description: as §3
# IFNβ = assay: qRT-PCR of IFNβ mRNA; type: cell-based, human; conditions: SCC23 cells
# Description: (§4) For qRT-PCR, total RNA was prepared using TRIzol reagent (Thermo Fisher Scientific Cat #15596026), and 1 μg of RNA was reversely transcribed with random primer (Thermo Fisher Scientific Cat #48190011), dNTP mix (Thermo Fisher Scientific, Cat #18427013), and M-MuLV Reverse Transcriptase (New England Biolabs, Cat #M0253L). The levels of mRNA were […] measured using a SYBRGreen supermix (Bio-Rad, Cat #1708880). GAPDH was used as an internal control.
# [6] = system: promoters of CCL5, CXCL9, CXCL10 and CXCL11; assay: ChIP-qPCR on chemokine promoters; type: cell-based, human; conditions: SCC23 cells
# Description: ChIP-qPCR assays were performed as previously described (Ding et al, 2013). Briefly, SCC cells were sequentially treated with dimethyl 3,3′-dithiobispropionimidate-HCl (DTBP; Cat #20665, Thermo Fisher Scientific) solution and formaldehyde, and harvested with a cell scraper. The cell pellet was lysed with ChIP lysis buffer and sonicated to generate 200-500 bp DNA fragments with a sonicator. The fragmented chromatins were immunoprecipitated with anti-BMI1 (Cell Signaling Technology, Cat #6964), anti-Ubiquityl-Histone H2A (Lys119) (Cell Signaling Technology, Cat #8240) overnight at 4° C. The precipitated DNA-chromatin products were purified with ChIP DNA clean & concentrator kit (Cat #D5205, Zymo Research) and the DNA levels were quantified by qPCR. Data is presented as the percentage of input DNA.
# SCC23 cells = assay: qRT-PCR of ATM, DNA-PKcs, MRE11, JUN, FOSL1, MMP3, MMP9 in SCC23 cells; type: cell-based, human
# Description: as §4
# BMI1+ CSCs [7] = assay: In vivo labeling and lineage tracing of Tomato+ BMI1+ CSCs; set-up: species or system mouse; conditions: tamoxifen 1 day prior to sacrifice, treated 4 weeks
# Description: as §1
# BMI1 [8] = assay: BMI1 expression in HNSCC tumors by immunostaining and Western blot; type: in vivo, mouse; conditions: HNSCC, FIG. 18
# Description: as §2, with “#4906845001). Protein extracts were resolved on a 10% or 15% SDS polyacrylamide gel and then transferred to a polyvinylidene difluoride membrane. Membranes were blocked with 5% milk for 1 h and incubated with primary antibodies overnight at 4° C.” for “#4906845001).”
# [9] = given concurrently with PTC209 plus anti-PD1
# Chain of BMI-1 (P35226 whole entry, species assumed): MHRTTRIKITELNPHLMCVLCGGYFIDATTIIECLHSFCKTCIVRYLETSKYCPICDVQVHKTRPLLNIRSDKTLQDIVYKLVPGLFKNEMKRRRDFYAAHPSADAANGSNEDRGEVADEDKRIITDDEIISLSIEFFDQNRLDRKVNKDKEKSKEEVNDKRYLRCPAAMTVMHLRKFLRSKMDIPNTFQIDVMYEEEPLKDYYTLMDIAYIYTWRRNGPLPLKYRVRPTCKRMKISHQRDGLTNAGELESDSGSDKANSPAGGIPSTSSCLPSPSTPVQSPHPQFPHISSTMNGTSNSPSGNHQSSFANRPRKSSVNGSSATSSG
# Chain of BMI-1 (Q06587 whole entry partner, species assumed): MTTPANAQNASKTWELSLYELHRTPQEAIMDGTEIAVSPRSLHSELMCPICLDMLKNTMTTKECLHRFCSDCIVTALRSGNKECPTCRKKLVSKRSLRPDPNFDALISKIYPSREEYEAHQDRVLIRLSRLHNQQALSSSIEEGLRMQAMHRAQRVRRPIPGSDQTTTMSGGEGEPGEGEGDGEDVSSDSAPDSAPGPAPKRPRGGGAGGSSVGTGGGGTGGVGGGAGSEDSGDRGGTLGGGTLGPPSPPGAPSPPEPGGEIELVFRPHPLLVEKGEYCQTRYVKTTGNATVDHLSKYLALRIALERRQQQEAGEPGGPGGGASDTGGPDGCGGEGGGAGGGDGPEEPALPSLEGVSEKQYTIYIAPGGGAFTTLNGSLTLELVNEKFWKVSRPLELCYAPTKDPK
compound,measurement,setting,value
"Cc1nc2ccc(F)cc2n1-c1nc(N)c(F)c(Nc2ccc(C(F)(F)F)cc2)n1 [PTC596, 5-fluoro-2-(6-fluoro-2-methyl-1H-benzimidazol-1-yl)-N-[4-(trifluoromethyl)phenyl]pyrimidine-4,6-diamine]",tolerability,[1],tolerable with manageable gastrointestinal side effects
Cc1ccc(-c2ccc3c(c2)C=C(C(=O)Nc2ccc(C[N+](C)(C)C4CCOCC4)cc2)CCC3)cc1.[Cl-] [TAK779],lymph node metastasis of HNSCC,[2],significantly lessened the inhibition of lymph node metastasis
same,CD8+ T cells infiltration in HNSCC,CD8+ T cells; [9],significantly abrogated CD8+ T cells infiltration in HNSCC
same,apoptosis in HNSCC,HNSCC tumor cells,attenuated apoptosis in HNSCC
same,BMI1+ CSCs in HNSCC (strong BMI1 staining),BMI1+ CSCs [3],does not affect CSCs in HNSCC
same,HNSCC growth (histological analysis),HNSCC; [9],significantly reversed the inhibition of HNSCC growth
same,visible lesion areas,HNSCC; [9],significantly restored visible lesion areas
"O=C1C(=Cc2cccnc2)C(=O)c2ccccc21 [PRT4165, 2-(3-pyridinylmethylene)-1H-indene-1,3(2H)-dione]",IC50,BMI-1,3.9 µM
"shBMI1: BMI1 specific shRNA lentiviral plasmids (Sigma-Aldrich, Cat #TRCN0000020156), SEQ ID NO:35 (CCGGCCTAATACTTTCCAGATTGATCTCGAGATCAATCTGGAAAGTATTAGGTTTTT)",BMI1 and H2AUb levels,BMI1 [4],reduced the expression of BMI1
same,Olive tail moment,pH2A.X; alkaline comet assay,significantly increased the Olive tail moment in SCC23 and SCC1 cells
same,pH2A.X,pH2A.X; immunostaining and Western blot,increased pH2A.X in SCC23 and SCC1 cells
same,accumulation of cytosolic dsDNA,cytosolic dsDNA,induced the accumulation of cytosolic dsDNA
same,"phosphorylation of STING (S366), TBK1 (S172) and IRF3 (S396)",[5]; SCC1 cells,"induction of phosphorylation of STING (S366), TBK1 (S172) and IRF3 (S396) in SCC1 cells"
same,"phosphorylation of STING (S366), TBK1 (S172) and IRF3 (S396)",[5]; SCC23 cells,"induction of phosphorylation of STING (S366), TBK1 (S172) and IRF3 (S396) in SCC23 cells"
same,IFNβ mRNA expression,IFNβ,induction of IFNβ mRNA expression in SCC23 cells
same,"levels of BMI1 on the promoters of CCL5, CXCL9, CXCL10 and CXCL11",[6],"reduction of BMI1 occupied on the promoters of CCL5, CXCL9, CXCL10, and CXCL11 in SCC23 cells"
same,"levels of H2AUb marks on the promoters of CCL5, CXCL9, CXCL10 and CXCL11",[6],"reduction of H2AUb levels on the promoters of CCL5, CXCL9, CXCL10, and CXCL11 in SCC23 cells"
same,"ATM, DNA-PKcs, and MRE11 mRNA expression",SCC23 cells,"does not affect the expression of ATM, DNA-PKcs, and MRE11"
same,"JUN, FOSL1, MMP3, and MMP9 mRNA expression",SCC23 cells,"does not change the expression of JUN, FOSL1, MMP3, and MMP9 significantly"
N.N.[Cl][Pt][Cl] [cisplatin],CD8+ T cell infiltration in HNSCC,"CD8+ T cells; 4NQO-induced HNSCC, treated 4 weeks",did not significantly increase CD8+ T cell infiltration
same,BMI1+ CSCs in HNSCC (in vivo labeling),BMI1+ CSCs [7],significantly enriched BMI1^+ CSCs
same,Bmi1 expression in Tomato+ CSCs (MFI of BMI1 staining),BMI1 [8],induces Bmi1 expression in Tomato^+ CSCs
same,lesion surface areas,"HNSCC; 4NQO-induced HNSCC, Bmi1CreER;RosatdTomato mice, treated 4 weeks",reduced the lesion surface areas
